Measured values: ChEMBL document CHEMBL1139158, “Prenyloxyphenylpropanoids as novel lead compounds for the selective inhibition of geranylgeranyl transferase I” (Bioorg Med Chem Lett, 2007)
pIC50: −log10 of the molar value.

Tests used:
Homo sapiens = organism: Homo sapiens; experiment: Inhibition of GGTase 1 at 100 uM
[1] = tested on: Protein farnesyltransferase (Homo sapiens); experiment: Inhibition of FTase at 100 uM
[2] = Inhibition of GGTase 1; parameters: species or system Homo sapiens

Row | inhibition (Homo sapiens) | inhibition [1] | pIC50 [2] | Structure (SMILES)
1 | 0% | 2.4% | – | COc1cc(C(=O)O)ccc1OCC=C(C)C
2 | 0% | 0% | – | COc1cc(C(=O)O)ccc1OC/C=C(\C)CCC=C(C)C
3 | 3% | 5.5% | – | CCOC(=O)/C=C/c1ccc(OC/C=C(\C)CCC=C(C)C)c(OC)c1
4 | 0% | – | – | CC(C)=CCC/C(C)=C/COc1ccc(C(=O)O)cc1
5 | 31% | 9.3% | – | COc1cc(/C=C/C(=O)O)ccc1OCC=C(C)C
6 | 83.9% | 11% | 4.18 | COc1cc(/C=C/C(=O)O)ccc1OC/C=C(\C)CC/C=C(\C)CCC=C(C)C
7 | 34.2% | 15.5% | – | COc1c(OC/C=C(\C)CCC=C(C)C)ccc2ccc(=O)oc12
8 | 93.5% | – | 4.55 | CC(C)=CCC/C(C)=C/CC/C(C)=C/COc1ccc(/C=C/C(=O)O)cc1
